Numbers after ± are expanded uncertainties.
Experiment: wn = mass fraction of the nth substance listed
Details: Fluid (supercritical or subcritical phases), isochoric method, w1 = 0.5001

FC(F)C(F)(F)F [pentafluoroethane] + FCF
Details | mass density [kg/m3]
363 K, 13894 kPa | 858.1 ± 1.7
364 K, 6970 kPa | 475.8 ± 1.3
364 K, 7223 kPa | 525.7 ± 1.3
364 K, 7494 kPa | 571.2 ± 1.3
364 K, 7828 kPa | 614.6 ± 1.4
364 K, 10192 kPa | 760.2 ± 1.6
364 K, 14207 kPa | 858 ± 1.7
365 K, 7077 kPa | 475.8 ± 1.2
365 K, 7344 kPa | 525.7 ± 1.3
365 K, 7632 kPa | 571.2 ± 1.3
365 K, 7982 kPa | 614.6 ± 1.3
365 K, 10427 kPa | 760.1 ± 1.6
365 K, 14520 kPa | 857.9 ± 1.7
366 K, 7184 kPa | 475.8 ± 1.2
366 K, 7465 kPa | 525.6 ± 1.2
366 K, 7771 kPa | 571.1 ± 1.3
366 K, 8137 kPa | 614.5 ± 1.3
366 K, 10664 kPa | 760 ± 1.6
366 K, 14835 kPa | 857.8 ± 1.7
367 K, 7291 kPa | 475.8 ± 1.2
367 K, 7587 kPa | 525.6 ± 1.2
367 K, 7907 kPa | 571.1 ± 1.3
367 K, 8294 kPa | 614.5 ± 1.3
367 K, 10900 kPa | 760 ± 1.6
367 K, 15148 kPa | 857.7 ± 1.7
368 K, 7397 kPa | 475.8 ± 1.2
368 K, 7708 kPa | 525.6 ± 1.2
368 K, 8044 kPa | 571.1 ± 1.3
368 K, 8449 kPa | 614.5 ± 1.3
368 K, 11133 kPa | 759.9 ± 1.6
368 K, 15462 kPa | 857.7 ± 1.7
369 K, 7504 kPa | 475.7 ± 1.2
369 K, 7831 kPa | 525.6 ± 1.2
369 K, 8183 kPa | 571 ± 1.3
369 K, 8605 kPa | 614.4 ± 1.3
369 K, 11369 kPa | 759.9 ± 1.6
369 K, 15777 kPa | 857.6 ± 1.7
370 K, 7612 kPa | 475.7 ± 1.1
370 K, 7953 kPa | 525.5 ± 1.2
370 K, 8323 kPa | 571 ± 1.3
370 K, 8762 kPa | 614.4 ± 1.3
370 K, 11608 kPa | 759.8 ± 1.5
370 K, 16094 kPa | 857.5 ± 1.7
371 K, 7719 kPa | 475.7 ± 1.1
371 K, 8075 kPa | 525.5 ± 1.2
371 K, 8460 kPa | 571 ± 1.2
371 K, 8917 kPa | 614.3 ± 1.3
371 K, 11844 kPa | 759.7 ± 1.5
371 K, 16410 kPa | 857.4 ± 1.7
372 K, 7825 kPa | 475.7 ± 1.1
372 K, 8198 kPa | 525.5 ± 1.2
372 K, 8601 kPa | 571 ± 1.2
372 K, 9073 kPa | 614.3 ± 1.3
372 K, 12081 kPa | 759.7 ± 1.5
372 K, 16724 kPa | 857.4 ± 1.7
373 K, 7931 kPa | 475.7 ± 1.1
373 K, 8321 kPa | 525.5 ± 1.2
373 K, 8740 kPa | 570.9 ± 1.2
373 K, 9230 kPa | 614.3 ± 1.3
373 K, 12318 kPa | 759.6 ± 1.5
373 K, 17037 kPa | 857.3 ± 1.7
374 K, 8039 kPa | 475.6 ± 1.1
374 K, 8445 kPa | 525.4 ± 1.2
374 K, 8878 kPa | 570.9 ± 1.2
374 K, 9389 kPa | 614.2 ± 1.3
374 K, 12556 kPa | 759.6 ± 1.5
374 K, 17355 kPa | 857.2 ± 1.7
375 K, 8147 kPa | 475.6 ± 1.1
375 K, 8567 kPa | 525.4 ± 1.2
375 K, 9016 kPa | 570.9 ± 1.2
375 K, 9544 kPa | 614.2 ± 1.3
375 K, 12795 kPa | 759.5 ± 1.5
375 K, 17669 kPa | 857.1 ± 1.7
376 K, 8254 kPa | 475.6 ± 1.1
376 K, 8690 kPa | 525.4 ± 1.1
376 K, 9155 kPa | 570.8 ± 1.2
376 K, 9701 kPa | 614.2 ± 1.3
376 K, 13033 kPa | 759.5 ± 1.5
376 K, 17984 kPa | 857.1 ± 1.7
377 K, 8362 kPa | 475.6 ± 1.1
377 K, 8813 kPa | 525.4 ± 1.1
377 K, 9295 kPa | 570.8 ± 1.2
377 K, 9858 kPa | 614.1 ± 1.3
377 K, 13272 kPa | 759.4 ± 1.5
377 K, 18301 kPa | 857 ± 1.7
378 K, 8469 kPa | 475.6 ± 1.1
378 K, 8937 kPa | 525.3 ± 1.1
378 K, 9437 kPa | 570.8 ± 1.2
378 K, 10018 kPa | 614.1 ± 1.3
378 K, 13511 kPa | 759.3 ± 1.5
378 K, 18619 kPa | 856.9 ± 1.7
379 K, 8575 kPa | 475.5 ± 1.1
379 K, 9060 kPa | 525.3 ± 1.1
379 K, 9576 kPa | 570.7 ± 1.2
379 K, 10174 kPa | 614 ± 1.3
379 K, 13747 kPa | 759.3 ± 1.5
379 K, 18935 kPa | 856.8 ± 1.7
380 K, 8683 kPa | 475.5 ± 1
380 K, 9183 kPa | 525.3 ± 1.1
380 K, 9715 kPa | 570.7 ± 1.2
380 K, 10331 kPa | 614 ± 1.3
380 K, 13988 kPa | 759.2 ± 1.5
381 K, 8790 kPa | 475.5 ± 1
381 K, 9306 kPa | 525.2 ± 1.1
381 K, 9856 kPa | 570.7 ± 1.2
381 K, 10492 kPa | 614 ± 1.3
381 K, 14227 kPa | 759.2 ± 1.5
382 K, 8897 kPa | 475.5 ± 1
382 K, 9432 kPa | 525.2 ± 1.1
382 K, 9996 kPa | 570.6 ± 1.2
382 K, 10651 kPa | 613.9 ± 1.3
382 K, 14466 kPa | 759.1 ± 1.5
383 K, 9005 kPa | 475.4 ± 1
383 K, 9553 kPa | 525.2 ± 1.1
383 K, 10136 kPa | 570.6 ± 1.2
383 K, 10808 kPa | 613.9 ± 1.3
383 K, 14706 kPa | 759 ± 1.5
384 K, 9112 kPa | 475.4 ± 1
384 K, 9679 kPa | 525.2 ± 1.1
384 K, 10277 kPa | 570.6 ± 1.2
384 K, 10967 kPa | 613.8 ± 1.3
384 K, 14944 kPa | 759 ± 1.5
385 K, 9219 kPa | 475.4 ± 1
385 K, 9804 kPa | 525.1 ± 1.1
385 K, 10418 kPa | 570.5 ± 1.2
385 K, 11125 kPa | 613.8 ± 1.3
385 K, 15188 kPa | 758.9 ± 1.5
386 K, 9326 kPa | 475.4 ± 1
386 K, 9929 kPa | 525.1 ± 1.1
386 K, 10558 kPa | 570.5 ± 1.2
386 K, 11283 kPa | 613.8 ± 1.3
386 K, 15426 kPa | 758.9 ± 1.5
387 K, 9434 kPa | 475.3 ± 1
387 K, 10051 kPa | 525.1 ± 1.1
387 K, 10699 kPa | 570.5 ± 1.2
387 K, 11442 kPa | 613.7 ± 1.3
387 K, 15666 kPa | 758.8 ± 1.5
388 K, 9540 kPa | 475.3 ± 1
388 K, 10174 kPa | 525 ± 1.1
388 K, 10840 kPa | 570.4 ± 1.2
388 K, 11602 kPa | 613.7 ± 1.3
388 K, 15904 kPa | 758.7 ± 1.5
389 K, 9649 kPa | 475.3 ± 1
389 K, 10296 kPa | 525 ± 1.1
389 K, 10980 kPa | 570.4 ± 1.2
389 K, 11761 kPa | 613.6 ± 1.3
389 K, 16147 kPa | 758.7 ± 1.5
390 K, 9756 kPa | 475.3 ± 1
390 K, 10421 kPa | 525 ± 1.1
390 K, 11124 kPa | 570.3 ± 1.2
390 K, 11922 kPa | 613.6 ± 1.3
390 K, 16388 kPa | 758.6 ± 1.5
391 K, 9862 kPa | 475.2 ± 1
391 K, 10547 kPa | 524.9 ± 1.1
391 K, 11263 kPa | 570.3 ± 1.2
391 K, 12081 kPa | 613.6 ± 1.3
391 K, 16627 kPa | 758.6 ± 1.5
392 K, 9969 kPa | 475.2 ± 1
392 K, 10670 kPa | 524.9 ± 1.1
392 K, 11403 kPa | 570.3 ± 1.2
392 K, 12239 kPa | 613.5 ± 1.3
392 K, 16868 kPa | 758.5 ± 1.5
393 K, 10077 kPa | 475.2 ± 1
393 K, 10795 kPa | 524.9 ± 1.1
393 K, 11546 kPa | 570.2 ± 1.2
393 K, 12400 kPa | 613.5 ± 1.3
393 K, 17110 kPa | 758.4 ± 1.5
394 K, 10185 kPa | 475.2 ± 1
394 K, 10920 kPa | 524.9 ± 1.1
394 K, 11688 kPa | 570.2 ± 1.2
394 K, 12560 kPa | 613.4 ± 1.3
394 K, 17351 kPa | 758.4 ± 1.5
395 K, 10292 kPa | 475.1 ± 1
395 K, 11045 kPa | 524.8 ± 1.1
395 K, 11829 kPa | 570.2 ± 1.2
395 K, 12720 kPa | 613.4 ± 1.3
395 K, 17590 kPa | 758.3 ± 1.5
396 K, 10400 kPa | 475.1 ± 1
396 K, 11168 kPa | 524.8 ± 1.1
396 K, 11972 kPa | 570.1 ± 1.2
396 K, 12880 kPa | 613.4 ± 1.3
396 K, 17831 kPa | 758.3 ± 1.5
397 K, 10508 kPa | 475.1 ± 1
397 K, 11292 kPa | 524.8 ± 1.1
397 K, 12113 kPa | 570.1 ± 1.2
397 K, 13040 kPa | 613.3 ± 1.3
397 K, 18073 kPa | 758.2 ± 1.5
398 K, 10616 kPa | 475 ± 1
398 K, 11415 kPa | 524.7 ± 1.1
398 K, 12256 kPa | 570.1 ± 1.2
398 K, 13199 kPa | 613.3 ± 1.3
398 K, 18315 kPa | 758.1 ± 1.5
399 K, 10723 kPa | 475 ± 1
399 K, 11538 kPa | 524.7 ± 1.1
399 K, 12395 kPa | 570 ± 1.2
399 K, 13361 kPa | 613.2 ± 1.3
399 K, 18556 kPa | 758.1 ± 1.5

Reference: the NIST ThermoML archive (doi:10.1021/je0501843)
